What all share (assay type): cell-based, human
Experiment [1] relates to caspase-6. Kind of experiment: Caspase-6 cleavage (Western blot) and activity (colorimetric assay) in capan-1 cells. Conditions: vehicle or 0.75 μM calcitriol 24 h, then varying concentrations of gemcitabine. Here is the method:
(§1) FIG. 5 is a series of Western blots illustrating the effects of treatment with calcitriol and gemcitabine on caspase pathway induction in capan-1 cells. […] Cell lysates were prepared and analyzed by Western blot for caspase-3, caspase-6, caspase-8, and caspase-9. […] FIGS. 6A-D show quantitation of caspase-3, caspase-6, caspase-8, and caspase-9. Activity of caspase-3 (FIG. 6A), caspase-6 (FIG. 6B), caspase-8 (FIG. 6C), and caspase-9 (FIG. 6D) in capan-1 cells was measured by caspase-family colorimetric substrate assays, according to the manufacturer's protocol. Absorbance at 400 nm was determined, and the caspase activity was expressed as absorbance (ODU) per milligram of protein per reaction. […] Caspase activity was expressed as absorbance (O.D.) per milligram of protein per reaction. For Western blot analysis, capan-1 cells were harvested and lysed in Triton-X100/SDS buffer as described previously ([…] et al., J. Biol. Chem. 276(33):30923-33 (2001), which is hereby incorporated by reference in its entirety). Proteins were transferred to PVDF membrane, and Western blots developed using Renaissance Enhanced Chemiluminescence Reagents (NEN Life Science Products, Boston, Mass.) or SuperSignal (Pierce, Rockford, Ill.).
A general note: In western blotting, separated proteins are transferred to a membrane and probed.

Experiment [2] relates to P-Erk1/2. Description: Immunoblot of P-Erk1/2 expression in capan-1 cells. To be noted: vehicle or 0.75 μM calcitriol 24 h, then varying concentrations of gemcitabine 24 h. Here is the method:
(§2) FIG. 4 is an immunoblot showing inhibition of survival signaling pathways in capan-1 by treatment with gemcitabine and 1,25D3. Capan-1 cells were treated 24 h with either vehicle or 0.75 μM calcitriol and then were treated with varying concentrations of gemcitabine for another 24 h. Cells were processed for immunoblotting to assess P-ErK1/2 and P-Akt expression. P-Erk1/2 was not affected by either agent alone or by the calcitriol/gemcitabine combination. […] For Western blot analysis, capan-1 cells were harvested and lysed in Triton-X100/SDS buffer as described previously ([…] et al., J. Biol. Chem. 276(33):30923-33 (2001), which is hereby incorporated by reference in its entirety). Proteins were transferred to PVDF membrane, and Western blots developed using Renaissance Enhanced Chemiluminescence Reagents (NEN Life Science Products, Boston, Mass.) or SuperSignal (Pierce, Rockford, Ill.).

For experiment [3], the system named is caspase-8. Kind of experiment: Caspase-8 cleavage (Western blot) and activity (colorimetric assay) in capan-1 cells. To be noted: vehicle or 0.75 μM calcitriol 24 h, then varying concentrations of gemcitabine. As for the experimental part: as §1
For experiment [4], the system named is P-Akt. Description: Immunoblot of P-Akt expression in capan-1 cells. To be noted: vehicle or 0.75 μM calcitriol 24 h, then varying concentrations of gemcitabine 24 h. Here is the method:
as §2

For experiment [5], the system named is caspase-9. Description: Caspase-9 cleavage (Western blot) and activity (colorimetric assay) in capan-1 cells. Conditions: vehicle or 0.75 μM calcitriol 24 h, then varying concentrations of gemcitabine. As for the experimental part:
as §1

“Also recorded” adds a separate entry of the source.

Take `C=C1/C(=C\C=C2/CCC[C@]3(C)[C@@H]([C@H](C)CCCC(C)(C)O)CC[C@@H]23)C[C@@H](O)C[C@@H]1O` [calcitriol, 1,25-dihydroxycholecalciferol]: in experiment [1], the caspase-6 cleavage/activation entry is “not cleaved at detectable levels”. Besides, the P-Erk1/2 expression result in experiment [2] is “not affected”. In addition, the caspase-8 cleavage/activation entry in experiment [3] was “not cleaved at detectable levels; also recorded: no change”. For the same compound, in experiment [4], the P-Akt levels result was “modestly reduced”. Also, the caspase-9 cleavage/activation result in experiment [5] is reported as “not cleaved at detectable levels; also recorded: modestly increased”.
For the compound `Nc1ccn([C@@H]2O[C@H](CO)[C@@H](O)C2(F)F)c(=O)n1` [gemcitabine], the P-Erk1/2 expression result in experiment [2] is “not affected”. Moreover, in experiment [3], the caspase-8 cleavage/activation result was “increase in the cleaved, activated form”. Besides, in experiment [4], the P-Akt levels result is “little affected; also recorded: not affected”. For the same compound, the caspase-9 cleavage/activation result in experiment [5] is on record as “no significant change; also recorded: modestly increased”.

For the origin of these results see patent US20060148752A1, “Method of treating soild tumors and leukemias using combination therapy of vitamin D and anti-metabolic nucleoside analogs” (priority 2004, published 2006).
